Results published in US20220305012A1, “L[…] TREATING SLEEP ISSUES” (EISAI R&D MANAGEMENT CO., LTD., priority 2019, published 2022).

Tests used:
[1] = system: Subjects Having Insomnia Disorder; test: Example 3: proportion of subjects whose ISI Total Score decreased and was <10 (pooled); format: in vivo, human; conditions: for percentage of subjects whose ISI Total Score decreased at month 1 and was less than 10: end of month 1, pooled Examples 1 and 2; for Responder No: subjects whose Insomnia Severity Index Total Score decreased from Baseline to Month 1 and was <10 / Responder Yes: subjects whose Insomnia Severity Index Total Score decreased from Baseline to Month 1 and was <10: Full Analysis Set, Examples 1 and 2; for Responder No: subjects whose Insomnia Severity Index Total Score decreased from Baseline to Month 1 and was <10 / Responder Yes: subjects whose Insomnia Severity Index Total Score decreased from Baseline to Month 1 and was <10 / Difference of proportion of responders vs. Placebo: Month 1; for Difference of proportion of responders vs. Placebo: ISI Total Score decreased and <10
Protocol: The data collected in studies described in Example 1 and Example 2 were pooled and the response of each subject was analyzed.
Table 32 provides the summary and analysis of responders, defined as those subjects whose Total ISI Score decreased at the end of month 1 by 7 or more points compared to baseline. Table 33 provides the summary and analysis of responders, defined as those subjects whose ISI Total Score decreased compared to baseline and was less than 10 at month 1.

[2] = system: Subjects Having Insomnia Disorder; test: Example 1: subjective sleep onset latency (sSOL), Sleep Diary; format: in vivo, human
Excerpt: As used herein, the term “subjective sleep onset latency”, abbreviated as “sSOL”, means the estimated number of minutes from the time that the subject attempted to sleep until sleep onset. In some embodiments, sSOL is derived from data entered in a subject's Sleep Diary.
In some embodiments, sleep diaries were used to assess sleep parameters reported by subjects (i.e., subjective assessments) including subjective sleep onset latency (sSOL), subjective sleep efficiency (sSE), subjective WASO (sWASO), and subjective total sleep time (sTST). Subjects were instructed to complete the Sleep Diary developed based on the consensus Sleep Diary as described in Carney et al., “The consensus sleep diary: standardizing prospective sleep self-monitoring,” Sleep 2012; 35(2):287-302. In some embodiments, the Sleep Diary was used to assess the subject's global perception of quality of sleep on the previous night with the following question: “How would you rate the quality of your sleep last night?” Subjects rated the quality of their sleep on a scale from 1 to 9, with 1 being extremely poor and 9 being extremely good. In some embodiments, the Sleep Diary was used to assess subjective ratings of morning sleepiness with the following question: “How alert/sleepy do you feel this morning?” Subjects rated their sleepiness/alertness level on a Likert scale from 1 to 9, with 1 being extremely sleepy and 9 being extremely alert.
sSOL—subjective sleep onset latency: estimated minutes from the time that the subject attempted to sleep until sleep onset.
Subjects were randomized in a double-blind manner and received either placebo, 5 mg of lemborexant, or 10 mg of lemborexant (approximately 1:1:1 randomization). All subjects underwent routine safety monitoring through the study, including assessments of treatment-emergent adverse events, 12-lead electrocardiograms, vital signs, weight, and clinical hematology and blood chemistry labs. Suicidality was assessed using the eC-SSRS.
Treatment period 1 began with the first dose of randomized study medication (placebo, 5 mg of lemborexant, or 10 mg of lemborexant). Subjects completed sleep diaries daily in the morning, within one hour of waketime. The subjects were assessed by a clinician one month, two months, three months, and six months after initiation of Treatment period 1. The following assessments were conducted:
The primary endpoint was the mean change from study baseline in subjective sleep onset latency at month 6.

Cc1ncc(OC[C@@]2(c3cccc(F)c3)C[C@H]2C(=O)Nc2ccc(F)cn2)c(C)n1 [Lemborexant, (1R,2S)-2-(((2,4-dimethylpyrimidin-5-yl)oxy)methyl)-2-(3-fluorophenyl)-N-(5-fluoropyridin-2-yl)cyclopropanecarboxamide]
percentage of subjects whose ISI Total Score decreased at month 1 and was less than 10 ([1]; 5 mg): 33.0% | percentage of subjects whose ISI Total Score decreased at month 1 and was less than 10 ([1]; 10 mg): 33.4% | Responder No: subjects whose Insomnia Severity Index Total Score decreased from Baseline to Month 1 and was <10 ([1]; Lemborexant 5 mg (N = 582)): 366 (62.9) n (%) | Responder Yes: subjects whose Insomnia Severity Index Total Score decreased from Baseline to Month 1 and was <10 ([1]; Lemborexant 5 mg (N = 582)): 192 (33.0) n (%) | Difference of proportion of responders vs. Placebo ([1]; Lemborexant 5 mg vs placebo): 12.44 | Responder No: subjects whose Insomnia Severity Index Total Score decreased from Baseline to Month 1 and was <10 ([1]; Lemborexant 10 mg (N = 584)): 345 (59.1) n (%) | Responder Yes: subjects whose Insomnia Severity Index Total Score decreased from Baseline to Month 1 and was <10 ([1]; Lemborexant 10 mg (N = 584)): 195 (33.4) n (%) | Difference of proportion of responders vs. Placebo ([1]; Lemborexant 10 mg vs placebo): 12.71 | difference of proportion of responders (ISI Total Score decreased and less than 10) versus placebo ([1]; both doses, month 1 (Table 33)): statistically significant | subjective sleep onset latency compared with placebo ([2]; 5 mg and 10 mg, at the equivalent timepoint (Table 2)): shorter subjective sleep onset latency than subjects treated with placebo | sSOL, Geometric Mean ([2]; 5 mg, First 7 Nights): 30.99 min | sSOL, Mean ([2]; 5 mg, First 7 Nights): 45.69 min | sSOL, Median ([2]; 5 mg, First 7 Nights): 36.58 min | sSOL, Geometric Mean ([2]; 5 mg, Month 1): 26.98 min | sSOL, Mean ([2]; 5 mg, Month 1): 41.89 min | sSOL, Median ([2]; 5 mg, Month 1): 32.50 min | sSOL, Geometric Mean ([2]; 5 mg, Month 3): 21.72 min | sSOL, Mean ([2]; 5 mg, Month 3): 34.31 min | sSOL, Median ([2]; 5 mg, Month 3): 24.79 min | sSOL, Geometric Mean ([2]; 5 mg, Month 6): 18.62 min | sSOL, Mean ([2]; 5 mg, Month 6): 29.49 min | sSOL, Median ([2]; 5 mg, Month 6): 22.29 min | sSOL, Geometric Mean ([2]; 5 mg, Study Baseline): 42.97 min | sSOL, Mean ([2]; 5 mg, Study Baseline): 62.19 min | sSOL, Median ([2]; 5 mg, Study Baseline): 53.57 min | sSOL Change from Study Baseline, Mean ([2]; 5 mg, after 1 Month): -19.41 min | sSOL Change from Study Baseline, Median ([2]; 5 mg, after 1 Month): -13.71 min | sSOL Change from Study Baseline, Mean ([2]; 5 mg, after 3 Months): -25.08 min | sSOL Change from Study Baseline, Median ([2]; 5 mg, after 3 Months): -20.71 min | sSOL Change from Study Baseline, Mean ([2]; 5 mg, after 6 Months): -29.39 min | sSOL Change from Study Baseline, Median ([2]; 5 mg, after 6 Months): -21.81 min | sSOL Change from Study Baseline, Mean ([2]; 5 mg, after 7 Nights): -16.86 min | sSOL Change from Study Baseline, Median ([2]; 5 mg, after 7 Nights): -11.00 min | sSOL, Geometric Mean ([2]; 10 mg, First 7 Nights): 30.77 min | sSOL, Mean ([2]; 10 mg, First 7 Nights): 45.94 min | sSOL, Median ([2]; 10 mg, First 7 Nights): 35.71 min | sSOL, Geometric Mean ([2]; 10 mg, Month 1): 27.14 min | sSOL, Mean ([2]; 10 mg, Month 1): 41.93 min | sSOL, Median ([2]; 10 mg, Month 1): 31.79 min | sSOL, Geometric Mean ([2]; 10 mg, Month 3): 22.71 min | sSOL, Mean ([2]; 10 mg, Month 3): 36.13 min | sSOL, Median ([2]; 10 mg, Month 3): 26.42 min | sSOL, Geometric Mean ([2]; 10 mg, Month 6): 19.35 min | sSOL, Mean ([2]; 10 mg, Month 6): 33.09 min | sSOL, Median ([2]; 10 mg, Month 6): 23.57 min | sSOL, Geometric Mean ([2]; 10 mg, Study Baseline): 45.05 min | sSOL, Mean ([2]; 10 mg, Study Baseline): 64.97 min | sSOL, Median ([2]; 10 mg, Study Baseline): 55.71 min | sSOL Change from Study Baseline, Mean ([2]; 10 mg, after 1 Month): -24.06 min | sSOL Change from Study Baseline, Median ([2]; 10 mg, after 1 Month): -19.86 min | sSOL Change from Study Baseline, Mean ([2]; 10 mg, after 3 Months): -27.94 min | sSOL Change from Study Baseline, Median ([2]; 10 mg, after 3 Months): -25.71 min | sSOL Change from Study Baseline, Mean ([2]; 10 mg, after 6 Months): -32.49 min | sSOL Change from Study Baseline, Median ([2]; 10 mg, after 6 Months): -28.21 min | sSOL Change from Study Baseline, Mean ([2]; 10 mg, after 7 Nights): -18.89 min | sSOL Change from Study Baseline, Median ([2]; 10 mg, after 7 Nights): -12.21 min
